Source: paper PMC7898037, “Improving mitochondria and ER stability helps eliminate upper motor neuron degeneration that occurs due to mSOD1 toxicity and TDP‐43 pathology” (Clinical and Translational Medicine, 2021)

What was measured:
hSOD1^G93A‐UeGFP mice = assay: Hanging wire test (max 60 s), hSOD1^G93A‐UeGFP mice; assay type: in vivo; parameters: Mean Diff. (wire hanging), vehicle vs. NU-9 / Mean (wire hanging): unit not given here; settings: for Hanging wire test, group mean (Mean 1 / Mean 2): hSOD1G93A-UeGFP (GS) mice; for wire hanging, Average / Mean (wire hanging): hSOD1G93A-UeGFP
Method: (§1) hSOD1^G93A‐UeGFP, prpTDP‐43^A315T‐UeGFP and WT‐UeGFP mice were weighed and the required NU‐9 dose per weight was calculated (20 or 100 mg/kg), which was administered once daily by oral gavage, starting at postnatal day (P)60 and continuing until P120. Animals from the untreated group received the vehicle (NMP and olive oil) only. For oral administration purposes, 20 ga × 38 mm plastic feeding tubes were used (Instech Laboratories, Inc). The gavage tip was inserted into the mouth directly over the tongue and into the pharynx. While observing the swallowing reflex, the tip was safely and smoothly slid into the esophagus. Once the administration was completed, the gavage tip was pulled straight out.
Behavior data were collected from hSOD1^G93A‐UeGFP and WT‐UeGFP mice (starting at P60 and every 7 days until P116) and from prpTDP‐43^A315T‐UeGFP mice (at P60, P90, and P120) with the following number of mice for each group: WT‐UeGFP vehicle (n = 10), hSOD1^G93A‐UeGFP vehicle (n = 6), WT‐UeGFP 20 mg/kg/day NU‐9 (n = 5), hSOD1^G93A‐UeGFP 20 mg/kg/day NU‐9 (n = 7), WT‐UeGFP 100 mg/kg/day NU‐9 (n = 11), hSOD1^G93A‐UeGFP 100 mg/kg/day NU‐9 (n = 9), prpTDP‐43^A315T‐UeGFP untreated (n ≥ 3), and prpTDP‐43^A315T‐UeGFP 100 mg/kg/day NU‐9 (n = 4) (Table S3).
Mice were placed on a wire mesh, which was then inverted and suspended above the home cage; the time when the animal fell was recorded. This test was performed three times for a maximum of 60 s each session, with a 1‐min rest period between each trial. The average performance for each session is presented as the average of the three trials.

cytochrome P450s = settings: cited from earlier work
[1] = tested on: UMN apical dendrites of WT‐UeGFP mice; assay: UMN apical dendrites with vacuoles, WT‐UeGFP mice; assay type: in vivo
Method: as §1
Mice were deeply anesthetized using ketamine (90 mg/kg) with xylazine (10 mg/kg), and transcardially perfused with 4% PFA in PBS. The brains were removed intact and postfixed (4% PFA, overnight) and stored in PBS with sodium azide (0.01%) at 4°C. Sections were cut in a coronal (50 µm) plane using a vibratome (Leica) and processed for immunocytochemical analyses.
The antibodies used are as follows: anti‐GFP (1:1000, Invitrogen; or 1:1000, Abcam) and anti‐misfolded SOD1 (B8H10, 1:250, Médimabs). Briefly, sections were treated with blocking solution (PBS, 0.05% BSA, 2% FBS, 1% Triton X‐100, and 0.1% saponin) for 30 min at room temperature and incubated with primary antibody diluted in blocking solution overnight at 4°C. Appropriate secondary fluorescent antibodies (1:500, AlexaFluor‐conjugated, Invitrogen) were added to the blocking solution at room temperature for 2 h in the dark.

Caco‐2 = tested on: Caco‐2; parameters: method as in PMID 22189273, PMID 22837812; settings: cited from earlier work
[2] = WT-UeGFP mice, NU-9 100 mg/kg/day

## C[C@H](Oc1cc(C(F)(F)F)cc(C(F)(F)F)c1)C1CC(=O)CC(=O)C1 [NU‐9]
hSOD1^G93A‐UeGFP mice; NU-9 20 mg/kg/day, P102, max 60 s
  Hanging wire test, group mean (Mean 1 / Mean 2): 43 s
hSOD1^G93A‐UeGFP mice; NU-9 20 mg/kg/day, P109, max 60 s
  Hanging wire test, group mean (Mean 1 / Mean 2): 37.48 s
hSOD1^G93A‐UeGFP mice; NU-9 20 mg/kg/day, P116, max 60 s
  Hanging wire test, group mean (Mean 1 / Mean 2): 27.33 s
hSOD1^G93A‐UeGFP mice; NU-9 100 mg/kg/day, P102, max 60 s
  Hanging wire test, group mean (Mean 1 / Mean 2): 53.3 s
hSOD1^G93A‐UeGFP mice; NU-9 100 mg/kg/day, P109, max 60 s
  Hanging wire test, group mean (Mean 1 / Mean 2): 58.89 s
hSOD1^G93A‐UeGFP mice; NU-9 100 mg/kg/day, P116, max 60 s
  Hanging wire test, group mean (Mean 1 / Mean 2): 51.15 s
hSOD1^G93A‐UeGFP mice; hSOD1G93A-UeGFP (GS) vehicle vs. NU-9 20 mg/kg/day, P102
  Hanging wire test, mean difference vehicle minus NU-9: -0.6667 s
hSOD1^G93A‐UeGFP mice; hSOD1G93A-UeGFP (GS) vehicle vs. NU-9 20 mg/kg/day, P109
  Hanging wire test, mean difference vehicle minus NU-9: 6.746 s
hSOD1^G93A‐UeGFP mice; hSOD1G93A-UeGFP (GS) vehicle vs. NU-9 20 mg/kg/day, P116
  Hanging wire test, mean difference vehicle minus NU-9: -4.722 s
hSOD1^G93A‐UeGFP mice; hSOD1G93A-UeGFP (GS) vehicle vs. NU-9 100 mg/kg/day, P102
  Hanging wire test, mean difference vehicle minus NU-9: -10.96 s
hSOD1^G93A‐UeGFP mice; hSOD1G93A-UeGFP (GS) vehicle vs. NU-9 100 mg/kg/day, P109
  Hanging wire test, mean difference vehicle minus NU-9: -14.67 s
hSOD1^G93A‐UeGFP mice; hSOD1G93A-UeGFP (GS) vehicle vs. NU-9 100 mg/kg/day, P116
  Hanging wire test, mean difference vehicle minus NU-9: -28.54 s
hSOD1^G93A‐UeGFP mice; hSOD1G93A-UeGFP vehicle vs. NU-9 20 mg/kg/day, P60
  Mean Diff. (wire hanging), vehicle vs. NU-9: -0.5238
hSOD1^G93A‐UeGFP mice; hSOD1G93A-UeGFP vehicle vs. NU-9 20 mg/kg/day, P67
  Mean Diff. (wire hanging), vehicle vs. NU-9: 4.175
hSOD1^G93A‐UeGFP mice; hSOD1G93A-UeGFP vehicle vs. NU-9 20 mg/kg/day, P74
  Mean Diff. (wire hanging), vehicle vs. NU-9: -3.46
hSOD1^G93A‐UeGFP mice; hSOD1G93A-UeGFP vehicle vs. NU-9 20 mg/kg/day, P81
  Mean Diff. (wire hanging), vehicle vs. NU-9: -1.095
hSOD1^G93A‐UeGFP mice; hSOD1G93A-UeGFP vehicle vs. NU-9 20 mg/kg/day, P88
  Mean Diff. (wire hanging), vehicle vs. NU-9: -2.452
hSOD1^G93A‐UeGFP mice; hSOD1G93A-UeGFP vehicle vs. NU-9 20 mg/kg/day, P95
  Mean Diff. (wire hanging), vehicle vs. NU-9: -5.254
hSOD1^G93A‐UeGFP mice; hSOD1G93A-UeGFP vehicle vs. NU-9 20 mg/kg/day, P102
  Mean Diff. (wire hanging), vehicle vs. NU-9: -0.6667
hSOD1^G93A‐UeGFP mice; hSOD1G93A-UeGFP vehicle vs. NU-9 20 mg/kg/day, P109
  Mean Diff. (wire hanging), vehicle vs. NU-9: 6.746
hSOD1^G93A‐UeGFP mice; hSOD1G93A-UeGFP vehicle vs. NU-9 20 mg/kg/day, P116
  Mean Diff. (wire hanging), vehicle vs. NU-9: -4.722
hSOD1^G93A‐UeGFP mice; hSOD1G93A-UeGFP vehicle vs. NU-9 100 mg/kg/day, P60
  Mean Diff. (wire hanging), vehicle vs. NU-9: -5.333
hSOD1^G93A‐UeGFP mice; hSOD1G93A-UeGFP vehicle vs. NU-9 100 mg/kg/day, P67
  Mean Diff. (wire hanging), vehicle vs. NU-9: 1.222
hSOD1^G93A‐UeGFP mice; hSOD1G93A-UeGFP vehicle vs. NU-9 100 mg/kg/day, P74
  Mean Diff. (wire hanging), vehicle vs. NU-9: -7.519
hSOD1^G93A‐UeGFP mice; hSOD1G93A-UeGFP vehicle vs. NU-9 100 mg/kg/day, P81
  Mean Diff. (wire hanging), vehicle vs. NU-9: -5.148
hSOD1^G93A‐UeGFP mice; hSOD1G93A-UeGFP vehicle vs. NU-9 100 mg/kg/day, P88
  Mean Diff. (wire hanging), vehicle vs. NU-9: -9.13
hSOD1^G93A‐UeGFP mice; hSOD1G93A-UeGFP vehicle vs. NU-9 100 mg/kg/day, P95
  Mean Diff. (wire hanging), vehicle vs. NU-9: -7.704
hSOD1^G93A‐UeGFP mice; hSOD1G93A-UeGFP vehicle vs. NU-9 100 mg/kg/day, P102
  Mean Diff. (wire hanging), vehicle vs. NU-9: -10.96
hSOD1^G93A‐UeGFP mice; hSOD1G93A-UeGFP vehicle vs. NU-9 100 mg/kg/day, P109
  Mean Diff. (wire hanging), vehicle vs. NU-9: -14.67
hSOD1^G93A‐UeGFP mice; hSOD1G93A-UeGFP vehicle vs. NU-9 100 mg/kg/day, P116
  Mean Diff. (wire hanging), vehicle vs. NU-9: -28.54
hSOD1^G93A‐UeGFP mice; NU-9 20 mg/kg/day po, P60
  wire hanging, Average: 55.1905 s
hSOD1^G93A‐UeGFP mice; NU-9 20 mg/kg/day po, P67
  wire hanging, Average: 51.7143 s
hSOD1^G93A‐UeGFP mice; NU-9 20 mg/kg/day po, P74
  wire hanging, Average: 55.2381 s
hSOD1^G93A‐UeGFP mice; NU-9 20 mg/kg/day po, P81
  wire hanging, Average: 54.0952 s
hSOD1^G93A‐UeGFP mice; NU-9 20 mg/kg/day po, P88
  wire hanging, Average: 52.9524 s
hSOD1^G93A‐UeGFP mice; NU-9 20 mg/kg/day po, P95
  wire hanging, Average: 54.8095 s
hSOD1^G93A‐UeGFP mice; NU-9 20 mg/kg/day po, P102
  wire hanging, Average: 43 s
hSOD1^G93A‐UeGFP mice; NU-9 20 mg/kg/day po, P109
  wire hanging, Average: 37.4762 s
hSOD1^G93A‐UeGFP mice; NU-9 20 mg/kg/day po, P116
  wire hanging, Average: 27.3333 s
hSOD1^G93A‐UeGFP mice; NU-9 20 mg/kg/day, P60
  Mean (wire hanging): 55.19
hSOD1^G93A‐UeGFP mice; NU-9 20 mg/kg/day, P67
  Mean (wire hanging): 51.71
hSOD1^G93A‐UeGFP mice; NU-9 20 mg/kg/day, P74
  Mean (wire hanging): 55.24
hSOD1^G93A‐UeGFP mice; NU-9 20 mg/kg/day, P81
  Mean (wire hanging): 54.1
hSOD1^G93A‐UeGFP mice; NU-9 20 mg/kg/day, P88
  Mean (wire hanging): 52.95
hSOD1^G93A‐UeGFP mice; NU-9 20 mg/kg/day, P95
  Mean (wire hanging): 54.81
hSOD1^G93A‐UeGFP mice; NU-9 100 mg/kg/day po, P60
  wire hanging, Average: 60 s
hSOD1^G93A‐UeGFP mice; NU-9 100 mg/kg/day po, P67
  wire hanging, Average: 54.6667 s
hSOD1^G93A‐UeGFP mice; NU-9 100 mg/kg/day po, P74
  wire hanging, Average: 59.2963 s
hSOD1^G93A‐UeGFP mice; NU-9 100 mg/kg/day po, P81
  wire hanging, Average: 58.1481 s
hSOD1^G93A‐UeGFP mice; NU-9 100 mg/kg/day po, P88
  wire hanging, Average: 59.6296 s
hSOD1^G93A‐UeGFP mice; NU-9 100 mg/kg/day po, P95
  wire hanging, Average: 57.2593 s
hSOD1^G93A‐UeGFP mice; NU-9 100 mg/kg/day po, P102
  wire hanging, Average: 53.2963 s
hSOD1^G93A‐UeGFP mice; NU-9 100 mg/kg/day po, P109
  wire hanging, Average: 58.8889 s
hSOD1^G93A‐UeGFP mice; NU-9 100 mg/kg/day po, P116
  wire hanging, Average: 51.1481 s
hSOD1^G93A‐UeGFP mice; NU-9 100 mg/kg/day, P60
  Mean (wire hanging): 60
hSOD1^G93A‐UeGFP mice; NU-9 100 mg/kg/day, P67
  Mean (wire hanging): 54.67
hSOD1^G93A‐UeGFP mice; NU-9 100 mg/kg/day, P74
  Mean (wire hanging): 59.3
hSOD1^G93A‐UeGFP mice; NU-9 100 mg/kg/day, P81
  Mean (wire hanging): 58.15
hSOD1^G93A‐UeGFP mice; NU-9 100 mg/kg/day, P88
  Mean (wire hanging): 59.63
hSOD1^G93A‐UeGFP mice; NU-9 100 mg/kg/day, P95
  Mean (wire hanging): 57.26
hSOD1^G93A‐UeGFP mice; hSOD1^G93A‐UeGFP mice, 100 mg/kg/day, P102
  hanging wire test, latency to fall: 53.3 ± 2.9 s
Cytochrome P450s; 5 CYPs, at 3 µM
  CYP inhibition: 5 CYPs; <10% at 3 µM
Cytochrome P450s
  inhibition of cytochrome P450s: little inhibition
[1]; [2]
  Mean, Fig. 4G (UMN apical dendrites with vacuoles): 16.43
  Mean, Fig. 7E (UMN apical dendrites with vacuoles): 16.43
[1]; WT-UeGFP vehicle minus NU-9 100 mg/kg/day, Tukey's multiple comparisons test
  Mean Diff., Fig. 7E, G vehicle vs. G NU-9 (100): 17.11
[1]; WT-UeGFP vehicle minus WT-UeGFP NU-9 100 mg/kg/day, Tukey's multiple comparisons test
  Mean Diff., Fig. 4G, G Vehicle vs. G NU-9 (100): 11.77
[1]; WT‐UeGFP mice, 100 mg/kg/day oral gavage P60–P120
  percentage of UMN apical dendrites with vacuoles: 16% ± 5%
Caco‐2
  Caco‐2 A→B: 24.1 × 10^–6 cm/s
  Caco‐2 B→A: 1.5 × 10^–6 cm/s
  Caco‐2 Efflux ratio: 0.06
